The values that follow are results of earlier work, collected in EP1997479A1, “Stabilized amorphous candesartan cilexetil compositions for oral administration” (Helm AG, priority 2007, dated 2008).

Regarding `CCOc1nc2cccc(C(=O)OC(C)OC(=O)OC3CCCCC3)c2n1Cc1ccc(-c2ccccc2-c2nnn[nH]2)cc1` (racemic) [Candesartan cilexetil, (±)-1-(Cyclohexyloxycarbonyloxy)ethyl 2-ethoxy-1-[[2'-(1H-tetrazol-5-yl)biphenyl-4-yl]methyl]-1 H-benzimidazole-7-carboxylate], the solubility in water entry is “low solubility in water”.
